# Data taken from patent US20230126447A1, “OCULAR DRUG DEPOT FOR COMPLEMENT-MEDIATED DISORDERS” (priority 2020, published 2023).
# Like-named read-outs stand apart in the source and are kept apart here.
# Test: Ocular tissue distribution and pharmacokinetics, 7.5 and 15 mg/kg oral, pigmented Dutch Belted rabbits (Example 7)
# Type: in vivo
# Description: For Group 1, two animals/time point were sacrificed via an overdose of sodium pentobarbital at approximately 1, 6, 12, 24, 96, 168, and 240 hours postdose. Blood (approximately 2 mL) was collected from all animals at sacrifice into tubes containing K2EDTA via exsanguination (cardiac puncture).
# For Groups 2 through 4, blood (approximately 2 mL) was collected via a jugular vein using a syringe and needle and was transferred into tubes containing K2EDTA at approximately 12 hours after the a.m. dose on Day 15 from the two animals designated for sacrifice at approximately 240 hours after the a.m. dose on Day 15.
# For Groups 2 through 4, two animals/group/time point were sacrificed via an overdose of sodium pentobarbital prior to dosing on Day 15 and at approximately 1, 6, 24, 96, 168, and 240 hours after the a.m. dose on Day 15. Blood (approximately 2 mL) was collected from all animals at sacrifice into tubes containing K2EDTA via exsanguination (cardiac puncture).
# Blood was maintained on wet ice, in chilled cryoracks, or at approximately 5° C. prior to centrifugation to obtain plasma. Centrifugation began within 1 hour of collection (Deviation). Plasma was placed into 96-well tubes with barcode labels. Plasma was maintained on dry ice prior to storage at approximately −70° C.
# At the time of sacrifice, both eyes were enucleated, and the following tissues were collected. Each eye was flash-frozen in liquid nitrogen for 15 to 20 seconds. The enucleated eye was placed on dry ice or stored at approximately −70° C. for at least 2 hours. Within approximately 3 days, the frozen matrices were collected as right and left eyes for each matrix into the specific tube type listed.
# At the time of frozen collection, the ocular tissues were rinsed with saline and blotted dry (as appropriate), weighed, and placed on dry ice. All ocular tissues were collected as single samples.
# [1] = Dutch Belted, rabbit, Retina (OU), male DB rabbits, Group 1, Day 1, 7.5 mg/kg single oral dose
# [2] = Dutch Belted, rabbit, plasma, male DB rabbits, Group 1, Day 1, 7.5 mg/kg single oral dose
# [3] = ICB (OU), male DB rabbits, Group 1, Day 1, […] single oral dose
# [4] = ICB (OU), male DB rabbits, Group 2, Day 15, […] BID oral (15 mg/kg/day)
# [5] = ICB (OU), male DB rabbits, Group 3, Day 15, 15 mg/kg/dose BID oral (30 mg/kg/day)
# [6] = Retina (OU), male DB rabbits, Group 1, Day 1, […] single oral dose
# [7] = Retina (OU), male DB rabbits, Group 2, Day 15, […] BID oral (15 mg/kg/day)
# [8] = Retina (OU), male DB rabbits, Group 3, Day 15, 15 mg/kg/dose BID oral (30 mg/kg/day)
# [9] = male, Dutch Belted, rabbit, choroid-retinal pigment epithelium (choroid-RPE), po, 15 mg/kg, Choroid-RPE (OU), male DB rabbits, Group 3, Day 15, 15 mg/kg/dose BID oral (30 mg/kg/day)
# [10] = male, Dutch Belted, rabbit, plasma, po, 15 mg/kg, plasma, male DB rabbits, Group 3, Day 15, 15 mg/kg/dose BID oral (30 mg/kg/day)
# [11] = male, Dutch Belted, rabbit, plasma, po, […], plasma, male DB rabbits, Group 1, Day 1, […] single oral dose
# [12] = male, Dutch Belted, rabbit, plasma, po, […], plasma, male DB rabbits, Group 2, Day 15, […] BID oral (15 mg/kg/day)
# [13] = plasma, male DB rabbits, Group 1, Day 1, […] single oral dose
# [14] = plasma, male DB rabbits, Group 2, Day 15, […] BID oral (15 mg/kg/day)
# [15] = plasma, male DB rabbits, Group 3, Day 15, 15 mg/kg/dose BID oral (30 mg/kg/day)
compound,measurement,setting,value
"CC(=O)c1nn(CC(=O)N2C[C@H](F)C[C@H]2C(=O)Nc2cccc(Br)n2)c2ccc(-c3cnc(C)nc3)cc12 [Compound 1, (2S,4R)-1-(2-(3-Acetyl-5-(2-methylpyrimidin-5-yl)-1H-indazol-1-yl)acetyl)-N-(6-bromopyridin-2-yl)-4-fluoropyrrolidine-2-carboxamide]",MRT last,[1],2.7 h
same,Tmax,[1],1 h
same,Tmax,"Dutch Belted, rabbit, Retina (OU), male DB rabbits, Group 3, Day 15, 15 mg/kg/dose BID oral (30 mg/kg/day)",1 h
same,MRT last,[2],2.67 h
same,Tmax,[2],1 h
same,AUC(0-inf),"Dutch Belted, rabbit, plasma, male DB rabbits, Group 1, Day 1, 7.5 mg/kg single oral dose, read-out: AUC0-inf",1590 ng·h/mL
same,Tmax,"Dutch Belted, rabbit, plasma, male DB rabbits, Group 3, Day 15, 15 mg/kg/dose BID oral (30 mg/kg/day)",1 h
same,AUC0-12,[3],2560 ng·h/g
same,AUC(0-24),[3],3460 ng·h/g
same,AUC(0-t),[3],3460 ng·h/g
same,Ctrough,[3],119 ng/g
same,DN AUC0-12,[3],341 (h*ng/g)/(mg/kg/dose)
same,DN AUC0-24,[3],462 (h*ng/g)/(mg/kg/day)
same,DN Cmax,[3],57.9 (ng/g)/(mg/kg/day)
same,AUC0-12,[4],7860 ng·h/g
same,AUC(0-24),[4],11900 ng·h/g
same,AUC(0-t),[4],11900 ng·h/g
same,Ctrough,[4],484 ng/g
same,DN AUC0-12,[4],1050 (h*ng/g)/(mg/kg/dose)
same,DN AUC0-24,[4],1580 (h*ng/g)/(mg/kg/day)
same,DN Cmax,[4],126 (ng/g)/(mg/kg/day)
same,AUC0-12,[5],13900 ng·h/g
same,AUC(0-24),[5],21300 ng·h/g
same,AUC(0-t),[5],21300 ng·h/g
same,Ctrough,[5],780 ng/g
same,DN AUC0-12,[5],925 (h*ng/g)/(mg/kg/dose)
same,DN AUC0-24,[5],1420 (h*ng/g)/(mg/kg/day)
same,DN Cmax,[5],136 (ng/g)/(mg/kg/day)
same,AUC0-12,[6],765 ng·h/g
same,AUC0-240,[6],864 ng·h/g
same,AUC(0-24),[6],864 ng·h/g
same,AUC(0-t),[6],765 ng·h/g
same,Ctrough,[6],16.5 ng/g
same,DN AUC0-12,[6],102 (h*ng/g)/(mg/kg/dose)
same,DN AUC0-24,[6],115 (h*ng/g)/(mg/kg/day)
same,DN Cmax,[6],25.1 (ng/g)/(mg/kg/day)
same,AUC0-12,[7],1710 ng·h/g
same,AUC0-240,[7],6070 ng·h/g
same,AUC(0-24),[7],2450 ng·h/g
same,AUC(0-t),[7],6070 ng·h/g
same,Ctrough,[7],80.0 ng/g
same,DN AUC0-12,[7],227 (h*ng/g)/(mg/kg/dose)
same,DN AUC0-24,[7],327 (h*ng/g)/(mg/kg/day)
same,DN Cmax,[7],40.8 (ng/g)/(mg/kg/day)
same,AUC0-12,[8],11500 ng·h/g
same,AUC0-240,[8],16100 ng·h/g
same,AUC(0-24),[8],6460 ng·h/g
same,AUC(0-t),[8],16100 ng·h/g
same,Ctrough,[8],123 ng/g
same,DN AUC0-12,[8],325 (h*ng/g)/(mg/kg/dose)
same,DN AUC0-24,[8],430 (h*ng/g)/(mg/kg/day)
same,DN Cmax,[8],85.7 (ng/g)/(mg/kg/day)
same,Cmax,"male, Dutch Belted, rabbit, choroid-RPE (choroid-retinal pigment epithelium), po, […], Choroid-RPE (OU), male DB rabbits, Group 1, Day 1, […] single oral dose",726 ng/g
same,Cmax,[9],3970 ng/g
same,half-life,[9],4570 min
same,half-life,"male, Dutch Belted, rabbit, choroid-retinal pigment epithelium (choroid-RPE), po, […], Choroid-RPE (OU), male DB rabbits, Group 1, Day 1, […] single oral dose",3530 min
same,Cmax,"male, Dutch Belted, rabbit, choroid-retinal pigment epithelium (choroid-RPE), po, […], Choroid-RPE (OU), male DB rabbits, Group 2, Day 15, […] BID oral (15 mg/kg/day)",2000 ng/g
same,Cmax,"male, Dutch Belted, rabbit, iris-ciliary body (ICB), po, 15 mg/kg, ICB (OU), male DB rabbits, Group 3, Day 15, 15 mg/kg/dose BID oral (30 mg/kg/day)",2050 ng/g
same,Cmax,"male, Dutch Belted, rabbit, iris-ciliary body (ICB), po, […], ICB (OU), male DB rabbits, Group 1, Day 1, […] single oral dose",435 ng/g
same,Cmax,"male, Dutch Belted, rabbit, iris-ciliary body (ICB), po, […], ICB (OU), male DB rabbits, Group 2, Day 15, […] BID oral (15 mg/kg/day)",943 ng/g
same,Cmax,[10],910 ng/mL
same,half-life,[10],299 min
same,AUC(0-t),"male, Dutch Belted, rabbit, plasma, po, 15 mg/kg, plasma, male DB rabbits, Group 3, Day 15, 15 mg/kg/dose BID oral (30 mg/kg/day), read-out: AUC0-12",3620 ng·h/mL
same,AUC(0-t),"male, Dutch Belted, rabbit, plasma, po, 15 mg/kg, plasma, male DB rabbits, Group 3, Day 15, 15 mg/kg/dose BID oral (30 mg/kg/day), read-out: AUC0-24",4010 ng·h/mL
same,AUC(0-t),"male, Dutch Belted, rabbit, plasma, po, 15 mg/kg, plasma, male DB rabbits, Group 3, Day 15, 15 mg/kg/dose BID oral (30 mg/kg/day), read-out: AUC0-240",4390 ng·h/mL
same,AUC(0-t),"male, Dutch Belted, rabbit, plasma, po, 15 mg/kg, plasma, male DB rabbits, Group 3, Day 15, 15 mg/kg/dose BID oral (30 mg/kg/day), read-out: AUC0-t",4010 ng·h/mL
same,Cmax,[11],423 ng/mL
same,half-life,[11],361 min
same,AUC(0-t),"male, Dutch Belted, rabbit, plasma, po, […], plasma, male DB rabbits, Group 1, Day 1, […] single oral dose, read-out: AUC0-12",1450 ng·h/mL
same,AUC(0-t),"male, Dutch Belted, rabbit, plasma, po, […], plasma, male DB rabbits, Group 1, Day 1, […] single oral dose, read-out: AUC0-24",1560 ng·h/mL
same,AUC(0-t),"male, Dutch Belted, rabbit, plasma, po, […], plasma, male DB rabbits, Group 1, Day 1, […] single oral dose, read-out: AUC0-240",1680 ng·h/mL
same,AUC(0-t),"male, Dutch Belted, rabbit, plasma, po, […], plasma, male DB rabbits, Group 1, Day 1, […] single oral dose, read-out: AUC0-t",1560 ng·h/mL
same,Cmax,[12],440 ng/mL
same,half-life,[12],293 min
same,AUC(0-t),"male, Dutch Belted, rabbit, plasma, po, […], plasma, male DB rabbits, Group 2, Day 15, […] BID oral (15 mg/kg/day), read-out: AUC0-12",1910 ng·h/mL
same,AUC(0-t),"male, Dutch Belted, rabbit, plasma, po, […], plasma, male DB rabbits, Group 2, Day 15, […] BID oral (15 mg/kg/day), read-out: AUC0-24",2130 ng·h/mL
same,AUC(0-t),"male, Dutch Belted, rabbit, plasma, po, […], plasma, male DB rabbits, Group 2, Day 15, […] BID oral (15 mg/kg/day), read-out: AUC0-240",2370 ng·h/mL
same,AUC(0-t),"male, Dutch Belted, rabbit, plasma, po, […], plasma, male DB rabbits, Group 2, Day 15, […] BID oral (15 mg/kg/day), read-out: AUC0-t",2130 ng·h/mL
same,concentration at 6 h,"male, Dutch Belted, rabbit, retina, oral, […] BID, DB rabbits, Day 15, […] BID, read-out: Mean Retina Concentration",97.9 ng/g
same,concentration at 24 h,"male, Dutch Belted, rabbit, retina, oral, […] BID, DB rabbits, Day 15, […] BID, 24 hr, read-out: Mean Retina Concentration",44.3 ng/g
same,concentration at 96 h,"male, Dutch Belted, rabbit, retina, oral, […] BID, DB rabbits, Day 15, […] BID, 96 hr, read-out: Mean Retina Concentration",13.9 ng/g
same,concentration at 168 h,"male, Dutch Belted, rabbit, retina, oral, […] BID, DB rabbits, Day 15, […] BID, 168 hr, read-out: Mean Retina Concentration",10.7 ng/g
same,concentration at 240 h,"male, Dutch Belted, rabbit, retina, oral, […] BID, DB rabbits, Day 15, […] BID, 240 hr, read-out: Mean Retina Concentration",7.18 ng/g
same,concentration at 6 h,"male, Dutch Belted, rabbit, retina, oral, […], DB rabbits, Day 1, […] single dose, read-out: Mean Retina Concentration",27.5 ng/g
same,concentration at 12 h,"male, Dutch Belted, rabbit, retina, oral, […], DB rabbits, Day 1, […] single dose, 12 hr, read-out: Mean Retina Concentration",16.5 ng/g
same,Cmax,"male, Dutch Belted, rabbit, retina, po, 15 mg/kg, Retina (OU), male DB rabbits, Group 3, Day 15, 15 mg/kg/dose BID oral (30 mg/kg/day)",1290 ng/g
same,Cmax,"male, Dutch Belted, rabbit, retina, po, […], Retina (OU), male DB rabbits, Group 1, Day 1, […] single oral dose",188 ng/g
same,Cmax,"male, Dutch Belted, rabbit, retina, po, […], Retina (OU), male DB rabbits, Group 2, Day 15, […] BID oral (15 mg/kg/day)",306 ng/g
same,Ctrough,[13],14.8 ng/mL
same,DN AUC0-12,[13],194 (h*ng/mL)/(mg/kg/dose)
same,DN AUC0-24,[13],208 (h*ng/mL)/(mg/kg/day)
same,DN Cmax,[13],56.4 (ng/mL)/(mg/kg/day)
same,Ctrough,[14],29.6 ng/mL
same,DN AUC0-12,[14],255 (h*ng/mL)/(mg/kg/dose)
same,DN AUC0-24,[14],284 (h*ng/mL)/(mg/kg/day)
same,DN Cmax,[14],58.6 (ng/mL)/(mg/kg/day)
same,Ctrough,[15],54.3 ng/mL
same,DN AUC0-12,[15],242 (h*ng/mL)/(mg/kg/dose)
same,DN AUC0-24,[15],267 (h*ng/mL)/(mg/kg/day)
same,DN Cmax,[15],60.7 (ng/mL)/(mg/kg/day)
same,"Tolerability, clinical observations","rabbits, single oral […] and BID ≥15 mg/kg/day",well tolerated
